Test results as given in PubChem BioAssay AID2060910 (Molecular Pharmacology Branch, DTP, NCI, 2025).

Test system: 242566-281-R-J2-PDC complex spheroid viability
Experiment: Anticancer human tumor 242566-281-R-J2-PDC patient-derived pancreatic carcinoma cell line growth inhibition [RAS]
Conditions: for IC50: curve of first compound; for viability, T/C: stronger effect = lower value
Method in brief: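 Multi-cell-type spheroids: tumor cells plus HUVEC endothelial cells and mesenchymal stem cells. RAS-pathway inhibitors were combined with targeted agents, each dosed in half-log steps down from clinical Cmax, or from 10 microM when Cmax was unknown.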

[1] = second compound 0.000949 µM, first compound 0.0316 µM
[2] = second compound 0.000949 µM, first compound 0.1 µM
[3] = second compound 0.000949 µM, first compound 0.316 µM
[4] = second compound 0.000949 µM, first compound 1 µM
[5] = second compound 0.003 µM, first compound 0.0316 µM
[6] = second compound 0.003 µM, first compound 0.1 µM
[7] = second compound 0.003 µM, first compound 0.316 µM
[8] = second compound 0.003 µM, first compound 1 µM
[9] = second compound 0.00949 µM, first compound 0.0316 µM
[10] = second compound 0.00949 µM, first compound 0.1 µM
[11] = second compound 0.00949 µM, first compound 0.316 µM
[12] = second compound 0.00949 µM, first compound 1 µM
[13] = second compound 0.03 µM, first compound 0.0316 µM
[14] = second compound 0.03 µM, first compound 0.1 µM
[15] = second compound 0.03 µM, first compound 0.316 µM
[16] = second compound 0.03 µM, first compound 1 µM
[17] = second compound 0.0949 µM, first compound 0.0316 µM
[18] = second compound 0.0949 µM, first compound 0.1 µM
[19] = second compound 0.0949 µM, first compound 0.316 µM
[20] = second compound 0.0949 µM, first compound 1 µM
[21] = second compound 0.3 µM, first compound 0.0316 µM
[22] = second compound 0.3 µM, first compound 0.1 µM
[23] = second compound 0.3 µM, first compound 0.316 µM
[24] = second compound 0.3 µM, first compound 1 µM
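Note: spheroids exposed to compound for 7 days before readout.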
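Throughout, for viability, T/C: 100% = DMSO vehicle control wells.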

Compound CC(C)n1nc(-c2ccc3oc(N)nc3c2)c2c(N)ncnc21 + C#Cc1c(F)ccc2cc(O)cc(-c3ncc4c(N5CC6CCC(C5)N6)nc(OCC56CCCN5CC(F)C6)nc4c3F)c12 has an IC50 (second compound 0.0316 µM) of 67.5 nM, an IC50 (second compound 0.1 µM) of 9.86 nM and an IC50 (second compound 0.316 µM) of 6.58 nM. It also gave an IC50 (second compound 1 µM) of 3.24 nM, an IC50 (second compound 3.16 µM) of 0.918 nM and an IC50 (second compound 10 µM) of 0.639 nM. For the same compound, the viability, T/C (second compound 0.0316 µM, first compound 0.000316 µM) was 91.9%, the viability, T/C (second compound 0.0316 µM, first compound 0.001 µM) was 95.8% and the viability, T/C (second compound 0.0316 µM, first compound 0.00316 µM) was 77.1%. For the same compound, the viability, T/C (second compound 0.0316 µM, first compound 0.01 µM) was 61.3%, the viability, T/C (second compound 0.0316 µM, first compound 0.0316 µM) was 50.5% and the viability, T/C (second compound 0.0316 µM, first compound 0.1 µM) was 49.3%. It also gave a viability, T/C (second compound 0.1 µM, first compound 0.000316 µM) of 81.4%, a viability, T/C (second compound 0.1 µM, first compound 0.001 µM) of 80.2% and a viability, T/C (second compound 0.1 µM, first compound 0.00316 µM) of 70.3%. For the same compound, the viability, T/C (second compound 0.1 µM, first compound 0.01 µM) was 49.9%, the viability, T/C (second compound 0.1 µM, first compound 0.0316 µM) was 40.6% and the viability, T/C (second compound 0.1 µM, first compound 0.1 µM) was 40%. The viability, T/C (second compound 0.316 µM, first compound 0.000316 µM) was 78.3%, the viability, T/C (second compound 0.316 µM, first compound 0.001 µM) was 73.5% and the viability, T/C (second compound 0.316 µM, first compound 0.00316 µM) was 57.9%. The viability, T/C (second compound 0.316 µM, first compound 0.01 µM) was 44.5%, the viability, T/C (second compound 0.316 µM, first compound 0.0316 µM) was 38% and the viability, T/C (second compound 0.316 µM, first compound 0.1 µM) was 31.3%. The viability, T/C (second compound 1 µM, first compound 0.000316 µM) was 57.9%, the viability, T/C (second compound 1 µM, first compound 0.001 µM) was 64% and the viability, T/C (second compound 1 µM, first compound 0.00316 µM) was 50.4%. It also gave a viability, T/C (second compound 1 µM, first compound 0.01 µM) of 29.4%, a viability, T/C (second compound 1 µM, first compound 0.0316 µM) of 28.7% and a viability, T/C (second compound 1 µM, first compound 0.1 µM) of 27.8%. For the same compound, the viability, T/C (second compound 3.16 µM, first compound 0.000316 µM) was 63.4%, the viability, T/C (second compound 3.16 µM, first compound 0.001 µM) was 46.9% and the viability, T/C (second compound 3.16 µM, first compound 0.00316 µM) was 39.2%. The viability, T/C (second compound 3.16 µM, first compound 0.01 µM) was 30.7%, the viability, T/C (second compound 3.16 µM, first compound 0.0316 µM) was 24.1% and the viability, T/C (second compound 3.16 µM, first compound 0.1 µM) was 19.8%. It also gave a viability, T/C (second compound 10 µM, first compound 0.000316 µM) of 55%, a viability, T/C (second compound 10 µM, first compound 0.001 µM) of 48% and a viability, T/C (second compound 10 µM, first compound 0.00316 µM) of 37.9%. The viability, T/C (second compound 10 µM, first compound 0.01 µM) was 29.1%, the viability, T/C (second compound 10 µM, first compound 0.0316 µM) was 21.7% and the viability, T/C (second compound 10 µM, first compound 0.1 µM) was 17.8%.

With CC(=O)OC12COC1CC(O)C1(C)C(=O)C(O)C3=C(C)C(OC(=O)C(O)C(NC(=O)OC(C)(C)C)c4ccccc4)CC(O)(C(OC(=O)c4ccccc4)C21)C3(C)C (stereo unspecified) + CCn1c(-c2cc(N3CCN(C)CC3)cnc2C(C)OC)c2c3cc(ccc31)-c1csc(n1)CC(NC(=O)C1CC1C)C(=O)N1CCCC(N1)C(=O)OCC(C)(C)C2 the IC50 (second compound 0.000949 µM) was < 31.6 nM, the IC50 (second compound 0.003 µM) was < 31.6 nM and the IC50 (second compound 0.00949 µM) was < 31.6 nM. For the same compound, the IC50 (second compound 0.03 µM) was < 31.6 nM, the IC50 (second compound 0.0949 µM) was < 31.6 nM and the IC50 (second compound 0.3 µM) was < 31.6 nM. For the same compound, the viability, T/C [1] was 38.4%, the viability, T/C [2] was 32.3% and the viability, T/C [3] was 21.8%. It also gave a viability, T/C [4] of 32.2%, a viability, T/C (second compound 0.000949 µM, first compound 3.16 µM) of 31.9% and a viability, T/C (second compound 0.000949 µM, first compound 10 µM) of 27.6%. It also gave a viability, T/C [5] of 34.2%, a viability, T/C [6] of 23.3% and a viability, T/C [7] of 22.6%. For the same compound, the viability, T/C [8] was 26.7%, the viability, T/C (second compound 0.003 µM, first compound 3.16 µM) was 32.5% and the viability, T/C (second compound 0.003 µM, first compound 10 µM) was 25.2%. The viability, T/C [9] was 26%, the viability, T/C [10] was 19% and the viability, T/C [11] was 21.9%. For the same compound, the viability, T/C [12] was 20.2%, the viability, T/C (second compound 0.00949 µM, first compound 3.16 µM) was 20.9% and the viability, T/C (second compound 0.00949 µM, first compound 10 µM) was 16.8%. It also gave a viability, T/C [13] of 19.1%, a viability, T/C [14] of 16.3% and a viability, T/C [15] of 17.9%. It also gave a viability, T/C [16] of 19%, a viability, T/C (second compound 0.03 µM, first compound 3.16 µM) of 11.6% and a viability, T/C (second compound 0.03 µM, first compound 10 µM) of 10%. For the same compound, the viability, T/C [17] was 11.7%, the viability, T/C [18] was 11.9% and the viability, T/C [19] was 13.4%. The viability, T/C [20] was 10.5%, the viability, T/C (second compound 0.0949 µM, first compound 3.16 µM) was 6.83% and the viability, T/C (second compound 0.0949 µM, first compound 10 µM) was 6.76%. It also gave a viability, T/C [21] of 9.32%, a viability, T/C [22] of 9.15% and a viability, T/C [23] of 7.89%. The viability, T/C [24] was 8.09%, the viability, T/C (second compound 0.3 µM, first compound 3.16 µM) was 7.91% and the viability, T/C (second compound 0.3 µM, first compound 10 µM) was 6.31%.

Compound O=C(c1ccc(F)c(F)c1Nc1ccc(I)cc1F)N1CC(O)([C@@H]2CCCCN2)C1 + CCn1c(-c2cccnc2C(C)OC)c2c3cc(ccc31)N1CCOC(CC(NC(=O)C(C(C)C)N(C)C(=O)C3(F)CCN(C(=O)C#CC(C)(C)N(C)C)CC3)C(=O)N3CCCC(N3)C(=O)OCC(C)(C)C2)C1 has an IC50 (second compound 0.000949 µM) of 96.3 nM, an IC50 (second compound 0.003 µM) of 123 nM and an IC50 (second compound 0.00949 µM) of 116 nM. For the same compound, the IC50 (second compound 0.03 µM) was 119 nM, the IC50 (second compound 0.0949 µM) was 90.7 nM and the IC50 (second compound 0.3 µM) was 52.1 nM. It also gave a viability, T/C (second compound 0.000949 µM, first compound 0.00316 µM) of 92.3%, a viability, T/C (second compound 0.000949 µM, first compound 0.01 µM) of 90.8% and a viability, T/C [1] of 51.1%. For the same compound, the viability, T/C [2] was 53.2%, the viability, T/C [3] was 38.9% and the viability, T/C [4] was 19.5%. It also gave a viability, T/C (second compound 0.003 µM, first compound 0.00316 µM) of 87.2%, a viability, T/C (second compound 0.003 µM, first compound 0.01 µM) of 77.5% and a viability, T/C [5] of 65.7%. It also gave a viability, T/C [6] of 52.9%, a viability, T/C [7] of 38.7% and a viability, T/C [8] of 18.9%. It also gave a viability, T/C (second compound 0.00949 µM, first compound 0.00316 µM) of 101%, a viability, T/C (second compound 0.00949 µM, first compound 0.01 µM) of 69% and a viability, T/C [9] of 78.5%. It also gave a viability, T/C [10] of 51.1%, a viability, T/C [11] of 33.7% and a viability, T/C [12] of 21%. For the same compound, the viability, T/C (second compound 0.03 µM, first compound 0.00316 µM) was 93.3%, the viability, T/C (second compound 0.03 µM, first compound 0.01 µM) was 89.4% and the viability, T/C [13] was 76.9%. The viability, T/C [14] was 54.9%, the viability, T/C [15] was 29.3% and the viability, T/C [16] was 22.4%. For the same compound, the viability, T/C (second compound 0.0949 µM, first compound 0.00316 µM) was 97.9%, the viability, T/C (second compound 0.0949 µM, first compound 0.01 µM) was 88.1% and the viability, T/C [17] was 68%. For the same compound, the viability, T/C [18] was 52%, the viability, T/C [19] was 26.5% and the viability, T/C [20] was 22.1%. It also gave a viability, T/C (second compound 0.3 µM, first compound 0.00316 µM) of 87%, a viability, T/C (second compound 0.3 µM, first compound 0.01 µM) of 75.3% and a viability, T/C [21] of 60.6%. For the same compound, the viability, T/C [22] was 36.9%, the viability, T/C [23] was 24.2% and the viability, T/C [24] was 15.8%.
